Literature values in patent publication US10674726B2, “Composition” (Conopco, Inc., priority 2013, dated 2020).

Settings: at neutral pH

| Compound | Critical Micelle Concentration |
| --- | --- |
| CCCCCCCC(CC(=O)O)OC(=O)CC(CCCCCCC)OC1OC(C)C(O)C(O)C1OC1OC(C)C(O)C(O)C1O (centres unmarked) [dirhamnolipid, 3-[3-[4,5-dihydroxy-6-methyl-3-(3,4,5-trihydroxy-6-methyloxan-2-yl)oxyoxan-2-yl]oxydecanoyloxy]decanoic acid] | 30 mg/L |
| CCCCCCCC(CC(=O)O)OC(=O)CC(CCCCCCC)O[C@@H]1O[C@@H](C)[C@H](O)[C@@H](O)[C@H]1O (stereo partly drawn) [mono-rhamnolipid, 3-[3-[(2R,3R,4R,5R,6S)-3,4,5-trihydroxy-6-methyloxan-2-yl]oxydecanoyloxy]decanoic acid] | 20 mg/L |
